Measured values published in US7642378B2, “Lipid lowering biphenylcarboxamides” (Janssen Pharmaceutica NV, priority 2001, dated 2010).

Assays:
Secretion of ApoB = test: Quantification of the secretion of ApoB; assay type: cell-based; conditions: HepG2 cells, 24 hours of incubation with test compound
Experimental: HepG2 cells were cultured in 24-well plates in MEM Rega 3 containing 10% fetal calf serum. At 70% confluency, the medium was changed and the test compound or carrier (DMSO, 0.4% final concentration) was added. After 24 hours of incubation, the medium was transferred to Eppendorf tubes and cleared by centrifugation. A sheep antibody directed against either apoB was added to the supernatant and the mixture was kept at 8° C. for 24 hours. Then, rabbit anti-sheep antibody was added and the immune complex was allowed to precipitate for 24 hours at 8° C. The immunoprecipitate was pelleted by centrifugation for 25 minutes at 1320 g and washed twice with a buffer containing 40 mM Mops, 40 mM NaH2PO4, 100 mM NaF, 0.2 mM DTT, 5 mM EDTA, 5 mM EGTA, 1% Triton-X-100, 0.5% sodium deoxycholate (DOC), 0.1% SDS, 0.2 μM leupeptin and 0.2 μM PMSF. Radioactivity in the pellet was quantified by liquid scintillation counting.
Resulting IC50 values are enumerated in Table C. 1.

Compound	melting point [°C]	pIC50 values (=−log IC50 value) (Secretion of ApoB)
COC(=O)COC(=O)C(c1ccccc1)N1CCN(c2ccc(NC(=O)c3ccccc3-c3ccc(C(F)(F)F)cc3)cc2)CC1 (stereo not drawn) [Co. No. 14, 2-methoxy-2-oxoethyl α-phenyl-4-[4-[[[4′-(trifluoromethyl)[1,1′-biphenyl]-2-yl]carbonyl]amino]phenyl]-1-piperazineacetate]	106	
COC(=O)CNC(=O)C(c1ccccc1)C1CCN(c2ccc(NC(=O)c3ccccc3-c3ccc(C(C)(C)C)cc3)cc2)CC1 (stereo not drawn) [Co. No. 145, (B)—N-[[1-[4-[[[4′-(1,1-dimethylethyl)[1,1′-biphenyl]-2-yl]carbonyl]amino]phenyl]-4-piperidinyl]phenylacetyl]-glycine methyl ester]	119.9 to 120	
COC(=O)COC(=O)C(c1ccccc1)N1CCN(c2ccc(NC(=O)c3ccccc3-c3ccc(C(F)(F)F)cc3)cc2)CC1 (stereo not drawn) [compound 14]		6.591
